In patent US4891373A, “Aminopropanol derivatives of 1,4:3,6-dianhydrohexitol nitrates, processes for their preparation and their use as medicaments” (Pfizer Inc., priority 1988, dated 1990):

Experiments:
[1] = test system: cardiovascular parameters (MAP, HR, LVSP, LVEDP, dp/dtmax, TPR, PAP, SV, CO); assay: Cardiovascular actions following intravenous administration to anesthetized dogs (pentobarbital) with opened thorax and artificial respiration; type: in vivo, dog; conditions: for CO (cardiac output), change / PAP (blood pressure in the A. pulmonalis), change / SV (stroke volume), change: vs pre-value, unsigned
Excerpt: (§1) venous administration to anesthetized dogs (pentobarbital)
(§2) with an opened thorax and artificial respiration.
as §1, §2

[2] = test system: systolic blood pressure (SBP) and heart rate (HR); assay: Systolic blood pressure and heart rate following peroral administration to conscious beagle dogs; type: in vivo, beagle dog; conditions: mean ± SEM
Excerpt: Duration of the action of various substances on the systolic blood
heart rate (HR) following peroral administration to conscious beagle

[3] = test system: T-wave increase in the ECG induced by lypressin; assay: Influence on the T-wave increase in the ECG of the anesthetized rat induced by intravenous bolus injection of lypressin; type: in vivo; conditions: p.o.
Experimental: Influence of various compounds on the T-wave
increase in the ECG of the anesthetized rat induced by
intravenous bolus injection of lypressin was determined
following the method of M. Leitold et al., Drug Res.,
36, 1454 (1986). The substances were administered
perorally 30 minutes or at various times before the […]

[4] = Survival rate of rats after an acute coronary ligature; type: in vivo, rat
Experimental: Influence of various substances on the survival
rate of rats 60 minutes, 24 hours and 7 days after an
acute coronary ligature was determined following the
method of I. Lepran, et al., L. Szekeres, Acta
Physiologica Sci. Hungaricae 53, 190 (1979). The
substances were administered orally 5 minutes before
the acute coronary ligature.

[5] = Tolerance of peroral dose in mice; conditions: mouse, in vivo, po
Excerpt: Set forth below is data obtained on the compounds of Examples 17, 19 and 20 that illustrates the pharmacological action of the compounds of the present invention.

[6] = 60 minutes, 100.0 mg/kg orally 5 min before ligature
[7] = 24 hours, 100.0 mg/kg orally 5 min before ligature
[8] = 7 days, 100.0 mg/kg orally 5 min before ligature

| SMILES | CO (cardiac output), action of substance ([1]; 30 μg/kg i.v.) [l/M] | CO (cardiac output), duration of action ([1]; 30 μg/kg i.v.) [min] | PAP (blood pressure in the A. pulmonalis), action of substance ([1]; 30 μg/kg i.v.) [mmHg] | PAP (blood pressure in the A. pulmonalis), duration of action ([1]; 30 μg/kg i.v.) [min] | SV (stroke volume), duration of action ([1]; 30 μg/kg i.v.) [min] | CO (cardiac output), change ([1]; 30 μg/kg i.v.) [l/M] | PAP (blood pressure in the A. pulmonalis), change ([1]; 30 μg/kg i.v.) [mmHg] | SV (stroke volume), change ([1]; 30 μg/kg i.v.) [mL/s] | CO (cardiac output), duration of action ([1]; 300 μg/kg i.v.) [min] | PAP (blood pressure in the A. pulmonalis), duration of action ([1]; 300 μg/kg i.v.) [min] | SV (stroke volume), action of substance ([1]; 300 μg/kg i.v.) [mL/s] | SV (stroke volume), duration of action ([1]; 300 μg/kg i.v.) [min] | PAP (blood pressure in the A. pulmonalis), change ([1]; 300 μg/kg i.v.) [mmHg] | SV (stroke volume), change ([1]; 300 μg/kg i.v.) [mL/s] | CO (cardiac output), duration of action ([1]; 3000 μg/kg i.v.) [min] | PAP (blood pressure in the A. pulmonalis), duration of action ([1]; 3000 μg/kg i.v.) [min] | SV (stroke volume), duration of action ([1]; 3000 μg/kg i.v.) [min] | CO (cardiac output), change ([1]; 3000 μg/kg i.v.) [l/m] | Duration of action at the ED50 dose [3] [h] | Tolerated peroral dose [5] [mg/kg] | further results |
| --- | --- | --- | --- | --- | --- | --- | --- | --- | --- | --- | --- | --- | --- | --- | --- | --- | --- | --- | --- | --- | --- |
| COc1ccccc1N1CCN(CC(O)CO[C@H]2CO[C@H]3[C@@H]2OC[C@H]3O[N+](=O)[O-])CC1 (stereo partly drawn) [Example 17, 2-O-<3-[4-(2-Methoxyphenyl)-piperazinyl]-2-hydroxypropyl>-isosorbide-5-nitrate] | 0.93 ± 0.07 | 6 ± 3 | 17.0 ± 4 | 2 ± 0.3 | 2 ± 0.2 | 0.07 ± 0.04 | 1.3 ± 0.5 | 0.4 ± 0.2 | 73 ± 40 | 1.4 ± 0.1 | 3.7 ± 0.4 | 74 ± 43 | 1.5 ± 0.5 | 0.7 ± 0.3 | > 75 | 2 ± 0.6 | > 75 | 0.450 ± 0.025 | 2 | 500 | SV (stroke volume), action of substance ([1]; 3000 μg/kg i.v.): 3.0 ± 0.6 mL/s; PAP (blood pressure in the A. pulmonalis), change ([1]; 3000 μg/kg i.v.): 2.3 ± 0.8 mmHg; SV (stroke volume), change ([1]; 3000 μg/kg i.v.): 2.6 ± 0.4 mL/s; SBP (systolic blood pressure), action of substance ([2]; 6.0 mg/kg p.o., after 1 hour): 91 ± 6 mmHg; HR (heart rate), action of substance ([2]; 6.0 mg/kg p.o., after 2 hours): 110 ± 16 Bts/M; SBP (systolic blood pressure), action of substance ([2]; 6.0 mg/kg p.o., after 2 hours): 89 ± 4 mmHg; HR (heart rate), action of substance ([2]; 6.0 mg/kg p.o., after 3 hours): 89 ± 8 Bts/M; SBP (systolic blood pressure), action of substance ([2]; 6.0 mg/kg p.o., after 3 hours): 97 ± 5 mmHg; HR (heart rate), action of substance ([2]; 6.0 mg/kg p.o., after 6 hours): 89 ± 5 Bts/M; HR (heart rate), action of substance ([2]; 6.0 mg/kg p.o., after 8 hours): 85 ± 7 Bts/M; Number of rats surviving after an acute coronary ligature ([4]; 60 minutes, 30.0 mg/kg orally 5 min before ligature): 17/20; Number of rats surviving after an acute coronary ligature ([4]; 24 hours, 30.0 mg/kg orally 5 min before ligature): 17/20; Number of rats surviving after an acute coronary ligature ([4]; 7 days, 30.0 mg/kg orally 5 min before ligature): 17/20 |
| COc1ccccc1N1CCN(CC(O)CO[C@@H]2CO[C@H]3[C@@H]2OC[C@H]3O[N+](=O)[O-])CC1 (stereo partly drawn) [Example 19, 5-O-<3-[4-(2-Methoxyphenyl)-piperazinyl]-2-hydroxypropyl>-isomannide-2-nitrate] | – | – | – | – | – | – | – | – | – | – | – | – | – | – | – | – | – | – | 4 | 500 | HR (heart rate), action of substance ([2]; 5.0 mg/kg p.o., after 2 hours): 90 ± 5 Bts/M; HR (heart rate), action of substance ([2]; 5.0 mg/kg p.o., after 3 hours): 85 ± 5 Bts/M; SBP (systolic blood pressure), action of substance ([2]; 5.0 mg/kg p.o., after 3 hours): 118 ± 6 mmHg; HR (heart rate), action of substance ([2]; 5.0 mg/kg p.o., after 6 hours): 86 ± 5 Bts/M; Number of rats surviving after an acute coronary ligature [4, 6]: 15/20; Number of rats surviving after an acute coronary ligature [4, 7]: 15/20; Number of rats surviving after an acute coronary ligature [4, 8]: 15/20 |
| COc1ccccc1N1CCN(CC(O)CO[C@H]2CO[C@H]3[C@@H]2OC[C@@H]3O[N+](=O)[O-])CC1 (stereo partly drawn) [Example 20, 5-O-<3-[4-(2-Methoxyphenyl)-piperazinyl]-2-hydroxypropyl>-isoidide-2-nitrat] | 0.81 ± 0.3 | 12 ± 6 | 16.0 ± 1 | 11 ± 6 | 12 ± 6 | 0.38 ± 0.1 | 0.4 ± 0.2 | 2.3 ± 1 | 35 ± 23 | 14 ± 13 | 7.2 ± 2.5 | 33 ± 23 | 0.7 ± 0.3 | 0.5 ± 2.9 | 3 ± 0.4 | > 177 | 4 ± 0.0 | 0.87 ± 0.7 | 4 | 500 | SV (stroke volume), action of substance ([1]; 30 μg/kg i.v.): 7.5 ± 2 mL/s; CO (cardiac output), change ([1]; 300 μg/kg i.v.): 0.21 ± 0.6 l/M; PAP (blood pressure in the A. pulmonalis), change ([1]; 3000 μg/kg i.v.): 1.1 ± 0.3 mmHg; HR (heart rate), action of substance ([2]; 5.0 mg/kg p.o., after 1 hour): 98 ± 7 Bts/M; SBP (systolic blood pressure), action of substance ([2]; 5.0 mg/kg p.o., after 1 hour): 97 ± 8 mmHg; SBP (systolic blood pressure), action of substance ([2]; 5.0 mg/kg p.o., after 2 hours): 95 ± 6 mmHg; HR (heart rate), action of substance ([2]; 5.0 mg/kg p.o., after 3 hours): 82 ± 7 Bts/M; SBP (systolic blood pressure), action of substance ([2]; 5.0 mg/kg p.o., after 3 hours): 106 ± 4 mmHg; HR (heart rate), action of substance ([2]; 5.0 mg/kg p.o., after 6 hours): 78 ± 6 Bts/M; HR (heart rate), action of substance ([2]; 5.0 mg/kg p.o., after 8 hours): 77 ± 6 Bts/M; Number of rats surviving after an acute coronary ligature [4, 6]: 14/20; Number of rats surviving after an acute coronary ligature [4, 7]: 14/20; Number of rats surviving after an acute coronary ligature [4, 8]: 14/20 |
